The values below come from patent US20240358693A1, “METHODS OF TREATING PAIN” (Aisa Pharma, Inc., priority 2023, published 2024).

Data set [1] has as its system participants with SSc-RP. The experiment in a line: Adverse events and serious adverse events (safety, tolerability). The class given is in vivo. Conditions: in vivo. From the text:
An AE is any event, side effect, or other untoward medical occurrence that occurs in conjunction with the use of a medicinal product in humans, whether or not considered to have a causal relationship to this treatment.
Severity of AEs will be graded by the Investigator as one of: • Mild (Grade 1): A type of AE that is usually transient and may require only minimal treatment or therapeutic intervention.
An SAE is an AE occurring during any study phase (i.e., baseline, treatment, washout, or follow-up), and at any dose of the study drug (active or placebo), that fulfills one or more of the following: • Results in death • It is immediately life-threatening • It requires in participant hospitalization or prolongation of existing hospitalization • It results in persistent or significant disability or incapacity • Results in a congenital abnormality or birth defect • It is an important medical event that may jeopardize the participant or may require medical intervention to prevent one of the outcomes listed above.
Treatment-emergent AEs (TEAEs) are defined as AEs that occur or worsen after the dose of study drug. If the timing of the start of an AE could not be determined unambiguously from the start or end dates provided, it will be assumed to be a TEAE. An AE is considered related if the relationship to either of the study drug has been indicated as possibly or probably or definite related by the investigator. An AE leading to study withdrawal is defined as an AE that cause a subject early terminated from the study. AEs will be identified as emerging in the following parts: • TEAEs for Part A will be those that started during Part A (i.e., from the first dose in Part A to end of follow up of Part A). • TEAEs for Part B will be those that started during Part B (i.e., from the first dose in Part B to end of follow-up of Part B).
Adverse events were coded using the most current version of the MedDRA® Version 22.0 or higher. The analysis of AEs was based on the concept of treatment emergent AEs. Treatment emergent AEs were tabulated by treatment group and included the number of participants for whom the event occurred, the severity, and relationship to study drug. Treatment emergent AEs (TEAEs) leading to discontinuation and SAEs with onset after the start of study drug were also summarized. All AEs and SAEs (including those with onset or worsening before the start of study drug) through the end of the study were listed.

Data set [2] relates to participants with SSc-RP. Nature of the data set: Average daily Raynaud's Condition Score (RCS). Set-up: key to Average Daily RCS, Mean / Average Daily RCS, Median / Average Daily RCS, Change from Baseline, Mean / Average Daily RCS, Change from Baseline, Median / Average daily RCS, Baseline, Mean / Average daily RCS, Baseline, Median / Mean RCS at baseline: RCS rated on a 0-10 cm VAS scale. The class given is in vivo, human. The conditions noted are these: ITT Part A. From the text: The RCS is based on how much difficulty participants had with Raynaud's today, how many attacks the participant had, and how long they lasted. In addition participants were and will be asked to consider how much pain, numbness, or other symptoms the Raynaud's caused in fingers (including painful sores), and how much the Raynaud's along affected the use of hand today (VAS 0-10 cm scale).
The absolute change in average daily RCS from baseline to the end of each dosing period was and will be a secondary outcome variable. The sponsor-developed participant-informed diary has been and will be used to record data. The average daily RCS is defined as the total RCS divided by the number of days with available diary data of each dosing period. Total RCS during screening period divided by the number of days with available data will be used as baseline for the analysis of all periods. If there are multiple daily RCS scores, the latest daily RCS will be used. The variable will be calculated similar to frequency data as before.

Where [3] appears, read: excluding outliers, dose Cilnidipine 10 mg, Tadalafil 5 mg, or 10 mg + 5 mg.

`CN1CC(=O)N2[C@H](c3ccc4c(c3)OCO4)c3[nH]c4ccccc4c3C[C@@H]2C1=O` [Tadalafil, tadalafil]: the “Safety: worst AE by group” value in data set [1] is on record as “Worst AE in tadalafil”. Besides, in data set [2] (setting [3]), the “Average Daily RCS (dosing period), Mean” value is on record as 4.46; the “Average Daily RCS (dosing period), Median” value was found to be 4.46; the “Average Daily RCS, Change from Baseline, Mean” value is on record as −1.58; the “Average Daily RCS, Change from Baseline, Median” value is recorded as −1.58. Also, in data set [2] (setting [3]), the “Average Daily RCS, Percent Change from Baseline, Mean” value is reported as −26.18%; the “Average Daily RCS, Percent Change from Baseline, Median” value was −26.18%; the “Average daily RCS, Baseline, Mean” value is 6.04; the “Average daily RCS, Baseline, Median” value stood at 6.04. Also, in data set [2] (Tadalafil 5 mg), the “Average Daily RCS, Change from Baseline, Mean” value is listed as −0.67; the “Average Daily RCS, Change from Baseline, Median” value is reported as −0.67; the “Average Daily RCS, Percent Change from Baseline, Mean” value is on record as −11.76%; the “Average Daily RCS, Percent Change from Baseline, Median” value is −11.76%. For the same compound, in data set [2] (Tadalafil 5 mg, dosing period), the “Average Daily RCS, Mean” value is given as 7.05 and the “Average Daily RCS, Median” value is 7.05.
